# Several values for one entry are separate records, joined by “and”; a condition that tells them apart may be missing. Identical values can stand only once. Like-named read-outs stand apart in the source and are kept apart here.
# Test: Comparative bioavailability study, curcumin in plasma by HPLC
# Type: in vivo, human
# Conditions: for Mean plasma concentration: listed as Curcumin Powder 95%
# Method: The bioavailability study was conducted at Amala Cancer Institute, Thrissur, Kerala on a request from the applicant. Twelve healthy subjects were recruited for the purpose of the study. […] The study design chosen was a balanced, open label, two-treatment, two-period, single dose, bioavailability study.
# 12 Subject were recruited for the study and were asked to avoid consumption of food containing rich turmeric powder or extract for 24 hours preceding each period. […] The following supplements were used for the purpose of the study:
# Each of the supplements were administered with 240 ml water in each period.
# The study design is open label, two-treatment, two-period, single dose, bioavailability study. […] Subjects were asked to avoid consumption of food containing rich turmeric powder or extract for 24 hours preceding each period. […] There was a washout period of at least 2 weeks between the doses.
# Blood was drawn from each subject just prior to dosing and at 1, 2, 4, 6, 8, and 24 hours post-dose. The total blood loss for each subject was approximately 70 ml and there were totally 14 blood samples of 5 ml each time point throughout the study.
# The primary efficacy variables were measured in this study were Cmax, AUCO-t and AUCO-∞ and the secondary efficacy variable were as follows Tmax, T½ and Kel. The statistical evaluation was done by Winnonlin Software 5.0.1 version. […] Tmax and T½ were also be recorded and compared for the two products.
# Preparation of Sample (Spiked with Standard Solution E): The frozen plasma samples were allowed to attain the room temperature. 1000 μl of the plasma sample was pipetted out and spiked with 100 μl of spiking standard solution E. This solution was vortex for 1 minute and 3.0 ml ethyl acetate (HPLC Grade) was added to the above solutions. The solution was vortex again for 1 minute with the aid of cyclomixer and allowed to settle down at room temperature.
# 1.5 ml of the upper ethyl acetate layer was pipetted out and evaporated to dryness using vacuum. The dried sample was dissolved in 600 μl of methanol (HPLC Grade) using vortex mixer. This solution was filtered by 0.2 micron membrane filter paper. 100 μl of these filtered solution was injected in HPLC (Waters Alliance System with 2996 PDA detector in isocratic mode). The column used was LiChrospher 100 RP-18 (250×4.6 mm 5 μM particle size) with methanol as the mobile phase and the detection wavelength was 420 nm. To identify and quantized curcuminoids in plasma the chromatographic peaks were compared with standard solution.
# [1] = individual subjects, 1 gm curcuminoids oral, listed as Curcumin Extract Powder (min 95% Curcuminoids)
smiles,measurement,setting,value
"COc1cc(C=CC(=O)CC(=O)C=Cc2ccc(O)c(OC)c2)ccc1O [Curcumin, 1,7-bis(4-hydroxy-3-methoxyphenyl)-1,6-heptadien-3,5-dione]","AUCINF, Max",1 gm curcuminoids oral,87.74 ng·h/mL
same,"AUCINF, Min",1 gm curcuminoids oral,76.09 ng·h/mL
same,"AUCT, Max",1 gm curcuminoids oral,198.27 ng·h/mL
same,"AUCT, Min",1 gm curcuminoids oral,31.24 ng·h/mL
same,"Cmax, Max",1 gm curcuminoids oral,36.11 ng/mL
same,"Cmax, Min",1 gm curcuminoids oral,2.48 ng/mL
same,"Thalf, Geometric Mean",1 gm curcuminoids oral,7.066 h
same,"Thalf, Max",1 gm curcuminoids oral,11.39 h
same,"Thalf, Mean",1 gm curcuminoids oral,7.516 h
same,"Thalf, Median",1 gm curcuminoids oral,5.95 h
same,"Thalf, Min",1 gm curcuminoids oral,5.21 h
same,"Tmax, Max",1 gm curcuminoids oral,24.00 h
same,"Tmax, Min",1 gm curcuminoids oral,1.00 h
same,"AUCINF, Mean (mean AUC)","1 gm curcuminoids oral, listed as Curcumin Extract Powder (min 95% Curcuminoids)",80.433 ng·h/mL
same,AUC(0-inf),"human, plasma, po, 1 gm, 1 gm curcuminoids oral, read-out: AUCINF, Geometric Mean",80.3 ng·h/mL
same,AUC(0-inf),"human, plasma, po, 1 gm, 1 gm curcuminoids oral, read-out: AUCINF, Mean (mean AUC)",80.4 ng·h/mL
same,AUC(0-inf),"human, plasma, po, 1 gm, 1 gm curcuminoids oral, read-out: AUCINF, Median",77.5 ng·h/mL
same,AUC(0-t),"human, plasma, po, 1 gm, 1 gm curcuminoids oral, read-out: AUCT, Geometric Mean",81 ng·h/mL
same,AUC(0-t),"human, plasma, po, 1 gm, 1 gm curcuminoids oral, read-out: AUCT, Mean",98.8 ng·h/mL
same,AUC(0-t),"human, plasma, po, 1 gm, 1 gm curcuminoids oral, read-out: AUCT, Median",77.8 ng·h/mL
same,Cmax,"human, plasma, po, 1 gm, 1 gm curcuminoids oral, read-out: Cmax, Geometric Mean",10.5 ng/mL
same,Cmax,"human, plasma, po, 1 gm, 1 gm curcuminoids oral, read-out: Cmax, Mean",13.3 ng/mL
same,Cmax,"human, plasma, po, 1 gm, 1 gm curcuminoids oral, read-out: Cmax, Median",10.3 ng/mL
same,Tmax,"human, plasma, po, 1 gm, 1 gm curcuminoids oral, read-out: Tmax, Geometric Mean",4.06 h
same,Tmax,"human, plasma, po, 1 gm, 1 gm curcuminoids oral, read-out: Tmax, Mean",8.25 h
same,Tmax,"human, plasma, po, 1 gm, 1 gm curcuminoids oral, read-out: Tmax, Median",3 h
same,AUC(0-inf),"human, plasma, po, 1 gm, individual subjects, 1 gm curcuminoids oral, read-out: AUCINF",76.1 ng·h/mL
same,concentration at 0 hr,"human, plasma, po, 1 gm, time 0 hr (prior to dosing), 1 gm curcuminoids oral, read-out: Mean plasma concentration",0 ng/mL
same,concentration at 0 hr,"human, plasma, po, 1 gm, time 0.00 hr (prior to dosing), individual subjects, single oral dose equivalent to 1 gm curcuminoids, read-out: Individual plasma concentration",0 ng/mL
same,concentration at 0 hr,"human, plasma, po, 1 gm, time 0 hr, 1 gm curcuminoids oral, read-out: Geometric Mean plasma concentration",0 ng/mL
same,concentration at 0 hr,"human, plasma, po, 1 gm, time 0 hr, 1 gm curcuminoids oral, read-out: Max plasma concentration",0 ng/mL
same,concentration at 0 hr,"human, plasma, po, 1 gm, time 0 hr, 1 gm curcuminoids oral, read-out: Median plasma concentration",0 ng/mL
same,concentration at 0 hr,"human, plasma, po, 1 gm, time 0 hr, 1 gm curcuminoids oral, read-out: Min plasma concentration",0 ng/mL
same,concentration at 1 hr,"human, plasma, po, 1 gm, time 1 hr, 1 gm curcuminoids oral, read-out: Geometric Mean plasma concentration",1.58 ng/mL
same,concentration at 1 hr,"human, plasma, po, 1 gm, time 1 hr, 1 gm curcuminoids oral, read-out: Max plasma concentration",20.6 ng/mL
same,concentration at 1 hr,"human, plasma, po, 1 gm, time 1 hr, 1 gm curcuminoids oral, read-out: Mean plasma concentration",5.46 ng/mL
same,concentration at 1 hr,"human, plasma, po, 1 gm, time 1 hr, 1 gm curcuminoids oral, read-out: Median plasma concentration",1.66 ng/mL
same,concentration at 1 hr,"human, plasma, po, 1 gm, time 1 hr, 1 gm curcuminoids oral, read-out: Min plasma concentration",0.05 ng/mL
same,concentration at 2 hr,"human, plasma, po, 1 gm, time 2 hr, 1 gm curcuminoids oral, read-out: Geometric Mean plasma concentration",13.5 ng/mL
same,concentration at 2 hr,"human, plasma, po, 1 gm, time 2 hr, 1 gm curcuminoids oral, read-out: Max plasma concentration",19.8 ng/mL
same,concentration at 2 hr,"human, plasma, po, 1 gm, time 2 hr, 1 gm curcuminoids oral, read-out: Mean plasma concentration",14.4 ng/mL
same,concentration at 2 hr,"human, plasma, po, 1 gm, time 2 hr, 1 gm curcuminoids oral, read-out: Median plasma concentration",14.9 ng/mL
same,concentration at 2 hr,"human, plasma, po, 1 gm, time 2 hr, 1 gm curcuminoids oral, read-out: Min plasma concentration",8.39 ng/mL
same,concentration at 4 hr,"human, plasma, po, 1 gm, time 4 hr, 1 gm curcuminoids oral, read-out: Geometric Mean plasma concentration",4.89 ng/mL
same,concentration at 4 hr,"human, plasma, po, 1 gm, time 4 hr, 1 gm curcuminoids oral, read-out: Max plasma concentration",15.6 ng/mL
same,concentration at 4 hr,"human, plasma, po, 1 gm, time 4 hr, 1 gm curcuminoids oral, read-out: Mean plasma concentration",7.07 ng/mL
same,concentration at 4 hr,"human, plasma, po, 1 gm, time 4 hr, 1 gm curcuminoids oral, read-out: Median plasma concentration",7.09 ng/mL
same,concentration at 4 hr,"human, plasma, po, 1 gm, time 4 hr, 1 gm curcuminoids oral, read-out: Min plasma concentration",0.75 ng/mL
same,concentration at 6 hr,"human, plasma, po, 1 gm, time 6 hr, 1 gm curcuminoids oral, read-out: Geometric Mean plasma concentration",3.03 ng/mL
same,concentration at 6 hr,"human, plasma, po, 1 gm, time 6 hr, 1 gm curcuminoids oral, read-out: Max plasma concentration",4.87 ng/mL
same,concentration at 6 hr,"human, plasma, po, 1 gm, time 6 hr, 1 gm curcuminoids oral, read-out: Mean plasma concentration",3.23 ng/mL
same,concentration at 6 hr,"human, plasma, po, 1 gm, time 6 hr, 1 gm curcuminoids oral, read-out: Median plasma concentration",2.77 ng/mL
same,concentration at 6 hr,"human, plasma, po, 1 gm, time 6 hr, 1 gm curcuminoids oral, read-out: Min plasma concentration",2.05 ng/mL
same,concentration at 8 hr,"human, plasma, po, 1 gm, time 8 hr, 1 gm curcuminoids oral, read-out: Geometric Mean plasma concentration",6.56 ng/mL
same,concentration at 8 hr,"human, plasma, po, 1 gm, time 8 hr, 1 gm curcuminoids oral, read-out: Max plasma concentration",36.1 ng/mL
same,concentration at 8 hr,"human, plasma, po, 1 gm, time 8 hr, 1 gm curcuminoids oral, read-out: Mean plasma concentration",18.6 ng/mL
same,concentration at 8 hr,"human, plasma, po, 1 gm, time 8 hr, 1 gm curcuminoids oral, read-out: Median plasma concentration",18.6 ng/mL
same,concentration at 8 hr,"human, plasma, po, 1 gm, time 8 hr, 1 gm curcuminoids oral, read-out: Min plasma concentration",1.19 ng/mL
same,concentration at 24 hr,"human, plasma, po, 1 gm, time 24 hr, 1 gm curcuminoids oral, read-out: Geometric Mean plasma concentration",2.23 ng/mL
same,concentration at 24 hr,"human, plasma, po, 1 gm, time 24 hr, 1 gm curcuminoids oral, read-out: Max plasma concentration",11.5 ng/mL
same,concentration at 24 hr,"human, plasma, po, 1 gm, time 24 hr, 1 gm curcuminoids oral, read-out: Mean plasma concentration",4.27 ng/mL
same,concentration at 24 hr,"human, plasma, po, 1 gm, time 24 hr, 1 gm curcuminoids oral, read-out: Median plasma concentration",1.93 ng/mL
same,concentration at 24 hr,"human, plasma, po, 1 gm, time 24 hr, 1 gm curcuminoids oral, read-out: Min plasma concentration",0.53 ng/mL
same,AUCINF,[1],87.74 ng·h/mL and 77.46 ng·h/mL
same,AUCT,[1],38.31 ng·h/mL and 53.25 ng·h/mL and 31.24 ng·h/mL and 82.17 ng·h/mL and 175.60 ng·h/mL and 137.89 ng·h/mL and 198.27 ng·h/mL and 73.46 ng·h/mL
same,Cmax,[1],2.48 ng/mL and 7.99 ng/mL and 15.62 ng/mL and 8.39 ng/mL and 9.09 ng/mL and 11.49 ng/mL and 36.11 ng/mL and 14.94 ng/mL
same,Thalf,[1],11.39 h and 5.95 h and 5.21 h
same,Tmax,[1],1.00 h and 4.00 h and 2.00 h and 24.00 h and 8.00 h
same,Mean plasma concentration,"time 0 hr (prior to dosing), 1 gm curcuminoids oral",0.0000 ng/mL
same,Individual plasma concentration,"time 0.00 hr (prior to dosing), individual subjects, single oral dose equivalent to 1 gm curcuminoids",0.00 ng/mL
same,Mean plasma concentration,"time 1 hr, 1 gm curcuminoids oral",5.4638 ng/mL
same,Individual plasma concentration,"time 1.00 hr, individual subjects, single oral dose equivalent to 1 gm curcuminoids, listed as Curcumin Extract Powder 95%",2.48 ng/mL and 7.99 ng/mL and 0.84 ng/mL and 0.05 ng/mL and 20.58 ng/mL and 0.85 ng/mL
same,Mean plasma concentration,"time 2 hr, 1 gm curcuminoids oral",14.3842 ng/mL
same,Individual plasma concentration,"time 2.00 hr, individual subjects, single oral dose equivalent to 1 gm curcuminoids, listed as Curcumin Extract Powder 95%",8.39 ng/mL and 19.82 ng/mL and 14.94 ng/mL
same,Mean plasma concentration,"time 4 hr, 1 gm curcuminoids oral",7.0711 ng/mL
same,Individual plasma concentration,"time 4.00 hr, individual subjects, single oral dose equivalent to 1 gm curcuminoids, listed as Curcumin Extract Powder 95%",0.75 ng/mL and 4.53 ng/mL and 15.62 ng/mL and 7.09 ng/mL and 7.36 ng/mL
same,Mean plasma concentration,"time 6 hr, 1 gm curcuminoids oral",3.2316 ng/mL
same,Individual plasma concentration,"time 6.00 hr, individual subjects, single oral dose equivalent to 1 gm curcuminoids, listed as Curcumin Extract Powder 95%",2.05 ng/mL and 4.87 ng/mL and 2.77 ng/mL
same,Mean plasma concentration,"time 8 hr, 1 gm curcuminoids oral",18.6496 ng/mL
same,Individual plasma concentration,"time 8.00 hr, individual subjects, single oral dose equivalent to 1 gm curcuminoids, listed as Curcumin Extract Powder 95%",1.19 ng/mL and 36.11 ng/mL
same,Mean plasma concentration,"time 24 hr, 1 gm curcuminoids oral",4.2698 ng/mL
same,Individual plasma concentration,"time 24.00 hr, individual subjects, single oral dose equivalent to 1 gm curcuminoids, listed as Curcumin Extract Powder 95%",2.47 ng/mL and 1.39 ng/mL and 0.65 ng/mL and 9.09 ng/mL and 11.49 ng/mL and 0.53 ng/mL

# — patent US9259401B2 (priority 2011, dated 2016)
